Results: PMC12630025, “Characterization and inhibitor sensitivity of ARAF, BRAF, and CRAF kinases [drawing 1]” (The Journal of Biological Chemistry, 2025)
Several values for one entry are separate records, joined by “and”; a condition that tells them apart may be missing. Equal values may be shown once. Read-outs that look alike come from different tables or passages of the source.

Tests used:
Assay type in all cases: biochemical
[1] = biological target: T1, ARAF^SSDD (MEK1^SASA:ARAF^SSDD-14-3-3ε dimer complex) (Homo sapiens, UniProt P10398, G300S/Y301D/Y302D); assay: TR-FRET kinase inhibition assay (phosphorylation of biotinylated MEK1), ARAF dimer complex; conditions: for IC50: 10 nM enzyme, 250 nM MEK1, 200 μM ATP, 40 min preincubation, 30 min reaction; for ARAF^SSDD nH (Hill slope): four-parameter fit, 200 μM ATP; for cooperativity of inhibition of ARAF^SSDD: from Hill constants, less than −1.0 indicates positive cooperativity
T1 construct: ARAF^274-606, G300S, Y301/302D-14-3-3 ε with N-terminal His6 and StrepII tags; His6 (N); StrepII (N); made in house; host or cells: SF9 insect cells (baculovirus)
T1 sequence (P10398 274-606 G300S/Y301D/Y302D): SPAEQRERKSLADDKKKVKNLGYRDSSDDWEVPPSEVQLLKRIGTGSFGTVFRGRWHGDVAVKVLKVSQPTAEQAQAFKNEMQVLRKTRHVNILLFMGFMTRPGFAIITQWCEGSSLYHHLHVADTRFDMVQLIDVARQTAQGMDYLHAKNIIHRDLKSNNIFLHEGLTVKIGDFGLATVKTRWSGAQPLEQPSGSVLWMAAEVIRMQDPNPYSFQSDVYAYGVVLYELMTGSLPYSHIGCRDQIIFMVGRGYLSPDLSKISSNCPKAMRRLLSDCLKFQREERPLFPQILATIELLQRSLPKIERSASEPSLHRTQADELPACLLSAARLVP

[2] = biological target: T2, BRAF^WT (MEK1^SASA:BRAF^WT:14-3-3 dimer complex) (Homo sapiens, UniProt P15056); assay: biochemical; conditions: for effect of increasing ATP concentration on IC50 for BRAF^WT dimers: 10, 100, 1000 μM ATP
T2 construct: His6 (N); made in house; host or cells: SF9 insect cells (baculovirus)
T2 sequence (P15056 419-766, one chain of several): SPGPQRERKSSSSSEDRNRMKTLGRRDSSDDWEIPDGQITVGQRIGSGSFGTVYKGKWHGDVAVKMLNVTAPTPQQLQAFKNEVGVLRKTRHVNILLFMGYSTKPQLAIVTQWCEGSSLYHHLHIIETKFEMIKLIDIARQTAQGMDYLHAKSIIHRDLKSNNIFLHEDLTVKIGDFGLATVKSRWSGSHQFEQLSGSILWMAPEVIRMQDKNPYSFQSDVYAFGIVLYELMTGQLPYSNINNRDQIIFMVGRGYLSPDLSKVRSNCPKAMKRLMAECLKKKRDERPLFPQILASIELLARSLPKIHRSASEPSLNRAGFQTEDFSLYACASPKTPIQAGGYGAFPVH

[3] = biological target: T3, CRAF^WT (MEK1:CRAF^WT:14-3-3 dimer complex) (Homo sapiens, UniProt P04049); assay: TR-FRET kinase inhibition assay (phosphorylation of biotinylated MEK1), CRAF WT dimer complex; conditions: for CRAF^WT nH (Hill slope): four-parameter fit
T3 construct: His6 (N); made in house; host or cells: insect cells (baculovirus)

[4] = biological target: T4, CRAF^SSDD (MEK1^SASA:CRAF^SSDD:14-3-3 dimer complex) (Homo sapiens, UniProt P04049, Y340D/Y341D); assay: TR-FRET kinase inhibition assay (phosphorylation of biotinylated MEK1), CRAF SSDD dimer complex; conditions: for CRAF^SSDD nH (Hill slope): four-parameter fit, 200 μM ATP; for CRAF^SSDD IC50: 1 nM enzyme
T4 construct: His6 (N); StrepII (N); made in house; host or cells: insect cells (baculovirus)

[5] = biological target: T5, BRAF^V600E (MEK1^SASA:BRAF^V600E monomer complex) (Homo sapiens, UniProt P15056, V600E); assay: TR-FRET kinase inhibition assay (phosphorylation of biotinylated MEK1), BRAF V600E monomer complex
T5 construct: His6 (N); intein (C, cleaved yes); made in house; host or cells: insect cells (baculovirus)

[6] = test system: CRAF^WT (MEK1:CRAF^WT:14-3-3 dimer complex); assay: TR-FRET kinase inhibition assay (phosphorylation of biotinylated MEK1), CRAF WT dimer complex; conditions: IC50 ratio ARAF/CRAF
[7] = test system: BRAF^WT (MEK1^SASA:BRAF^WT:14-3-3 dimer complex); assay: biochemical; conditions: IC50 ratio versus BRAF^V600E
[8] = 1 nM enzyme, 250 nM MEK1, 200 μM ATP, 40 min preincubation, 30 min reaction, read-out: BRAF^WT IC50
[9] = IC50 of BRAF^WT at 10 μM ATP, 10 μM ATP
[10] = IC50 of BRAF^WT at 100 μM ATP, 100 μM ATP
[11] = IC50 of BRAF^WT at 1000 μM ATP, 1000 μM ATP
[12] = 4 nM enzyme, 250 nM MEK1, 200 μM ATP, 40 min preincubation, 30 min reaction
[13] = 4 nM enzyme, 250 nM MEK1, 200 μM ATP, 40 min preincubation, 30 min reaction, read-out: CRAF^WT IC50
[14] = 250 nM MEK1, 200 μM ATP, 40 min preincubation, 30 min reaction
[15] = read-out: IC50 of BRAF^WT at 100 μM ATP, 100 μM ATP
[16] = 1 nM enzyme, 250 nM MEK1, 200 μM ATP, 40 min preincubation, three-parameter fit

Compound | IC50 [1] | ARAF^SSDD nH (Hill slope) [1] | BRAF^WT nH (Hill slope) ([2]; four-parameter fit, 200 μM ATP) | CRAF^WT nH (Hill slope) ([3]; 200 μM ATP) | CRAF^SSDD nH (Hill slope) [4] | other results
Cc1ccc(NC(=O)c2cccc(C(C)(C)C#N)c2)cc1Nc1ccc2ncn(C)c(=O)c2c1 [AZ628] | 44.1 ± 21.2 nM | −1.8 | −3.1 | −1.1 | −2.6 | cooperativity of inhibition of ARAF^SSDD [1]: clear positive cooperativity
Cc1ccc2c(Nc3cccc(Cl)c3F)nccc2c1NC(=O)c1csc2c(N)ncnc12 [Belvarafenib] | 69.9 ± 32 nM | −1.3 | −3.0 | −1.6 | −3.0 | IC50 [2, 8]: 19.9 ± 0.98 nM; effect of increasing ATP concentration on IC50 for BRAF^WT dimers [2]: only modestly affected; IC50 [2, 9]: 14.2 ± 6.36 nM; IC50 [2, 10]: 21.5 ± 9.23 nM; IC50 [2, 11]: 29.3 ± 8.75 nM; IC50 [5]: 13.3 ± 0.87 nM; CRAF^WT IC50 [3, 12]: single-digit nanomolar; IC50 [3, 13]: 5.05 ± 1.81 nM; CRAF^SSDD IC50 [4, 14]: single-digit nanomolar; IC50 ([4]; read-out: CRAF^SSDD IC50): 5.66 ± 1.12 nM
CC(C)(C)c1nc(-c2cccc(NS(=O)(=O)c3c(F)cccc3F)c2F)c(-c2ccnc(N)n2)s1 [Dabrafenib] | 9 nM and 8.58 nM | −1.1 | −1.4 | −0.9 | −1.0 | –
OCCn1cc(-c2ccc3c(c2)CC/C3=N\O)c(-c2ccncc2)n1 [GDC0879] | – | −0.4 | – | −1.0 | −0.7 | BRAF^WT nH (Hill slope) [2]: −0.9
CNc1ncc2cc(-c3cc(NC(=O)NCCC(C)(C)C)c(F)cc3C)c(C)nc2n1 [LY3009120] | – | −3.6 | −2.2 | −1.4 | −2.9 | cooperativity of inhibition of ARAF^SSDD [1]: clear positive cooperativity
Cc1ccc(NC(=O)c2ccnc(C(F)(F)F)c2)cc1-c1cc(OCCO)nc(N2CCOCC2)c1 [Naporafenib] | 161 ± 19.2 nM | −3.2 | −2.3 | −1.9 | −2.6 | cooperativity of inhibition of ARAF^SSDD [1]: clear positive cooperativity; IC50 [2, 8]: 37.1 ± 23 nM; effect of increasing ATP concentration on IC50 for BRAF^WT dimers [2]: only modestly affected; IC50 [2, 9]: 29.1 ± 8.31 nM; IC50 [2, 11]: 54.9 ± 16.5 nM; IC50 [2, 15]: 38.2 ± 11.4 nM; IC50 [5]: 51.3 ± 1.16 nM; CRAF^WT IC50 [3, 12]: single-digit nanomolar; IC50 [3, 13]: 5.46 ± 2.67 nM; fold greater potency against CRAF dimers than ARAF dimers [6]: approximately 30 fold; CRAF^SSDD IC50 [4, 14]: single-digit nanomolar; IC50 ([4]; read-out: CRAF^SSDD IC50): 6.05 ± 2.41 nM
CCCS(=O)(=O)Nc1ccc(F)c(C(=O)c2c[nH]c3ncc(Cl)cc23)c1F [PLX4720] | 704 ± 264 nM | −0.5 | – | – | – | –
CCN(C)S(=O)(=O)Nc1ccc(F)c(C(=O)c2c[nH]c3ncc(-c4cnc(C5CC5)nc4)cc23)c1F [PLX7904] | 899 ± 516 nM | −0.6 | −0.6 | −0.4 | −0.4 | IC50 [2, 8]: > 999 nM; IC50 ([2]; read-out: IC50 of BRAF^WT at 10 μM ATP, 10 μM ATP): 170 ± 121 nM; IC50 [2, 15]: > 1000 nM; IC50 ([2]; read-out: IC50 of BRAF^WT at 1000 μM ATP, 1000 μM ATP): > 10000 nM; IC50 [5, 16]: 320 ± 82.4 nM
O=C(c1c(F)ccc(NS(=O)(=O)N2CC[C@@H](F)C2)c1F)c1c[nH]c2ncc(-c3cnc(C4CC4)nc3)cc12 [PLX8394] | 59.6 ± 54.8 nM | −0.8 | −0.9 | −0.5 | −0.5 | fold less active on ARAF^SSDD dimers than on BRAF^V600E ([1]; IC50 ratio versus BRAF^V600E): about 3 fold; IC50 [2, 8]: 54 ± 40.1 nM; effect of increasing ATP concentration on IC50 for BRAF^WT dimers [2]: shifted as expected; IC50 [2, 9]: 11.1 ± 7.84 nM; IC50 [2, 10]: 38.5 ± 34.2 nM; IC50 [2, 11]: 259 ± 316 nM; fold less active on BRAF^WT dimers than on BRAF^V600E [7]: about 3 fold; IC50 [5, 16]: 21.1 ± 1.78 nM; IC50 [3, 13]: > 999 nM; IC50 ([3]; 200 μM ATP, read-out: CRAF^WT dimers IC50): > 1000 nM; IC50 ([4]; read-out: CRAF^SSDD IC50): 279 ± 202 nM
Cc1ccc(C(=O)Nc2ccc(CN3CCN(C)CC3)c(C(F)(F)F)c2)cc1C#Cc1cnc2cccnn12 [Ponatinib] | – | −1.2 | −2.0 | −0.9 | −1.6 | –
CN(C)CCOc1ccc(-c2nc(-c3ccncc3)c(-c3ccc4c(c3)CC/C4=N\O)[nH]2)cc1 [SB590885] | 14.6 ± 3.9 nM | −0.6 | – | – | – | BRAF^WT nH (Hill slope) [2]: −1.0; IC50 ([3]; CRAF^WT IC50, 4 nM enzyme, 250 nM MEK1, 200 μM ATP, 40 min preincubation, 30 min reaction): 11.6 ± 1.19 nM; IC50 ([4]; CRAF^SSDD IC50, 1 nM enzyme, 250 nM MEK1, 200 μM ATP, 40 min preincubation, 30 min reaction): 2.5 ± 1.63 nM
CNC(=O)c1cc(Oc2ccc(NC(=O)Nc3ccc(Cl)c(C(F)(F)F)c3)cc2)ccn1 [Sorafenib] | – | −0.9 | – | −1.2 | −1.3 | –
C[C@@H](NC(=O)c1ncnc(N)c1Cl)c1ncc(C(=O)Nc2cc(C(F)(F)F)c(Cl)cn2)s1 [Tovorafenib] | 225 ± 67.3 nM | −1.4 | – | – | – | –
CCCS(=O)(=O)Nc1ccc(F)c(C(=O)c2c[nH]c3ncc(-c4ccc(Cl)cc4)cc23)c1F [Vemurafenib] | 47.6 ± 9.12 nM | −0.9 | −0.6 | −0.7 | −0.8 | –
